Source: patent US12043599B2, “Herbicidal compounds” (SYNGENTA PARTICIPATIONS AG, priority 2018, dated 2024)

Tests used:
Type in all cases: in vivo
Conditions in all cases: 250 g/h, evaluated after 13 days
[1] = system: Setaria faberi (SETFA); assay: Pre-emergence herbicidal glasshouse test, percentage damage
Outline: (§1)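 Percentage damage, read 13 days after treatment and banded into five classes (1=0-19% up to 5=80-100%). Plants in pots of standard soil received 250 g/h as a spray from acetone/water (50:50) containing 0.5% Tween 20. Application was one day (pre-emergence) or eight days (post-emergence) after sowing.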

[2] = system: Avena fatua (AVEFA); assay: as above
Outline: as §1

[3] = system: Echinochloa crus-galli (ECHCG); assay: as above
Outline: as §1

[4] = system: Alopecurus myosuroides (ALOMY); assay: as above
Outline: as §1

[5] = system: Lolium perenne (LOLPE); assay: as above
Outline: as §1

[6] = system: Avena fatua (AVEFA); assay: Post-emergence herbicidal glasshouse test, percentage damage
Outline: as §1

[7] = system: Echinochloa crus-galli (ECHCG); assay: as above
Outline: as §1

[8] = system: Alopecurus myosuroides (ALOMY); assay: as above
Outline: as §1

[9] = system: Lolium perenne (LOLPE); assay: as above
Outline: as §1

[10] = system: Setaria faberi (SETFA); assay: as above
Outline: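 Wheat, barley and Setaria faberi were sprayed post-emergence after 8 days' growth (24/16 °C, 14 h light, 65% humidity) with compound in acetone/water (50:50) containing 0.5% Tween 20, at the indicated rates. On wheat, compounds were also applied with cloquintocet-mexyl at 50 g/ha. Damage was scored after 13 days on a five-point scale (5=80-100% to 1=0-19%).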

## CC#Cc1cc(C)c(C2C(=O)CC3(CCN(C(=O)Cc4cccnn4)CC3)CC2=O)c(C)c1 [Compound A103]
[1]
  SETFA PRE percentage damage (five point scale): 5 (5=80-100%)
[2]
  AVEFA PRE percentage damage (five point scale): 4 (4=60-79%)
[3]
  ECHCG PRE percentage damage (five point scale): 5 (5=80-100%)
[4]
  ALOMY PRE percentage damage (five point scale): 4 (4=60-79%)
[5]
  LOLPE PRE percentage damage (five point scale): 4 (4=60-79%)
[6]
  AVEFA POST percentage damage (five point scale): 5 (5=80-100%)
[7]
  ECHCG POST percentage damage (five point scale): 5 (5=80-100%)
[8]
  ALOMY POST percentage damage (five point scale): 5 (5=80-100%)
[9]
  LOLPE POST percentage damage (five point scale): 5 (5=80-100%)
[10]
  SETFA POST percentage damage (five point scale): 5 (5=80-100%)

## CC#Cc1cc(C)c(C2C(=O)CC3(CCN(C(=O)Cc4cnccn4)CC3)CC2=O)c(C)c1 [Compound A104]
[1]
  SETFA PRE percentage damage (five point scale): 5 (5=80-100%)
[2]
  AVEFA PRE percentage damage (five point scale): 5 (5=80-100%)
[3]
  ECHCG PRE percentage damage (five point scale): 5 (5=80-100%)
[4]
  ALOMY PRE percentage damage (five point scale): 4 (4=60-79%)
[5]
  LOLPE PRE percentage damage (five point scale): 5 (5=80-100%)
[6]
  AVEFA POST percentage damage (five point scale): 5 (5=80-100%)
[7]
  ECHCG POST percentage damage (five point scale): 5 (5=80-100%)
[8]
  ALOMY POST percentage damage (five point scale): 5 (5=80-100%)
[9]
  LOLPE POST percentage damage (five point scale): 5 (5=80-100%)
[10]
  SETFA POST percentage damage (five point scale): 5 (5=80-100%)

## CC#Cc1cc(C)c(C2C(=O)CC3(CCN(C(=O)NC(=O)c4cc(F)ccn4)CC3)CC2=O)c(C)c1 [Compound A164]
[1]
  SETFA PRE percentage damage (five point scale): 5 (5=80-100%)
[2]
  AVEFA PRE percentage damage (five point scale): 5 (5=80-100%)
[3]
  ECHCG PRE percentage damage (five point scale): 5 (5=80-100%)
[4]
  ALOMY PRE percentage damage (five point scale): 4 (4=60-79%)
[5]
  LOLPE PRE percentage damage (five point scale): 5 (5=80-100%)
[6]
  AVEFA POST percentage damage (five point scale): 5 (5=80-100%)
[7]
  ECHCG POST percentage damage (five point scale): 5 (5=80-100%)
[8]
  ALOMY POST percentage damage (five point scale): 5 (5=80-100%)
[9]
  LOLPE POST percentage damage (five point scale): 5 (5=80-100%)
[10]
  SETFA POST percentage damage (five point scale): 5 (5=80-100%)

## CC#Cc1cc(C)c(C2C(=O)CC3(CCN(C(=O)c4cccc(C(F)(F)F)n4)CC3)CC2=O)c(C)c1 [Compound A91]
[1]
  SETFA PRE percentage damage (five point scale): 5 (5=80-100%)
[2]
  AVEFA PRE percentage damage (five point scale): 5 (5=80-100%)
[3]
  ECHCG PRE percentage damage (five point scale): 5 (5=80-100%)
[4]
  ALOMY PRE percentage damage (five point scale): 5 (5=80-100%)
[5]
  LOLPE PRE percentage damage (five point scale): 5 (5=80-100%)
[6]
  AVEFA POST percentage damage (five point scale): 5 (5=80-100%)
[7]
  ECHCG POST percentage damage (five point scale): 5 (5=80-100%)
[8]
  ALOMY POST percentage damage (five point scale): 5 (5=80-100%)
[9]
  LOLPE POST percentage damage (five point scale): 5 (5=80-100%)
[10]
  SETFA POST percentage damage (five point scale): 5 (5=80-100%)

## CC#Cc1cc(C)c(C2C(=O)CC3(CCN(C(=O)[C@H](C)O)CC3)CC2=O)c(C)c1 [Compound A155]
[1]
  SETFA PRE percentage damage (five point scale): 5 (5=80-100%)
[2]
  AVEFA PRE percentage damage (five point scale): 5 (5=80-100%)
[3]
  ECHCG PRE percentage damage (five point scale): 5 (5=80-100%)
[4]
  ALOMY PRE percentage damage (five point scale): 5 (5=80-100%)
[5]
  LOLPE PRE percentage damage (five point scale): 5 (5=80-100%)
[6]
  AVEFA POST percentage damage (five point scale): 5 (5=80-100%)
[7]
  ECHCG POST percentage damage (five point scale): 5 (5=80-100%)
[8]
  ALOMY POST percentage damage (five point scale): 5 (5=80-100%)
[9]
  LOLPE POST percentage damage (five point scale): 5 (5=80-100%)
[10]
  SETFA POST percentage damage (five point scale): 5 (5=80-100%)

## CC#Cc1cc(C)c(C2C(=O)CC3(CCN(C(=O)c4cncc(OC)n4)CC3)CC2=O)c(C)c1 [Compound A180]
[1]
  SETFA PRE percentage damage (five point scale): 5 (5=80-100%)
[2]
  AVEFA PRE percentage damage (five point scale): 5 (5=80-100%)
[3]
  ECHCG PRE percentage damage (five point scale): 5 (5=80-100%)
[4]
  ALOMY PRE percentage damage (five point scale): 5 (5=80-100%)
[5]
  LOLPE PRE percentage damage (five point scale): 5 (5=80-100%)
[6]
  AVEFA POST percentage damage (five point scale): 5 (5=80-100%)
[7]
  ECHCG POST percentage damage (five point scale): 5 (5=80-100%)
[8]
  ALOMY POST percentage damage (five point scale): 5 (5=80-100%)
[9]
  LOLPE POST percentage damage (five point scale): 5 (5=80-100%)
[10]
  SETFA POST percentage damage (five point scale): 5 (5=80-100%)

## CC#Cc1cc(C)c(C2C(=O)CC3(CCN(C(=O)C4CC4)CC3)CC2=O)c(C)c1 [Compound A8, 3-(cyclopropanecarbonyl)-9-(2,6-dimethyl-4-prop-1-ynyl-phenyl)-3-azaspiro[5.5]undecane-8,10-dione]
[1]
  SETFA PRE percentage damage (five point scale): 5 (5=80-100%)
[2]
  AVEFA PRE percentage damage (five point scale): 5 (5=80-100%)
[3]
  ECHCG PRE percentage damage (five point scale): 5 (5=80-100%)
[4]
  ALOMY PRE percentage damage (five point scale): 5 (5=80-100%)
[5]
  LOLPE PRE percentage damage (five point scale): 5 (5=80-100%)
[6]
  AVEFA POST percentage damage (five point scale): 5 (5=80-100%)
[7]
  ECHCG POST percentage damage (five point scale): 5 (5=80-100%)
[8]
  ALOMY POST percentage damage (five point scale): 5 (5=80-100%)
[9]
  LOLPE POST percentage damage (five point scale): 5 (5=80-100%)
[10]
  SETFA POST percentage damage (five point scale): 5 (5=80-100%)

## CC#Cc1cc(C)c(C2=C(OC(=O)OC)CC3(CCN(S(=O)(=O)CC)CC3)CC2=O)c(C)c1 [Compound P7, [9-(2,6-dimethyl-4-prop-1-ynyl-phenyl)-3-ethylsufonyl-10-oxo-3-azaspiro[5.5]undec-8-en-8-yl] methyl carbonate]
[1]
  SETFA PRE percentage damage (five point scale): 5 (5=80-100%)
[2]
  AVEFA PRE percentage damage (five point scale): 5 (5=80-100%)
[3]
  ECHCG PRE percentage damage (five point scale): 5 (5=80-100%)
[4]
  ALOMY PRE percentage damage (five point scale): 5 (5=80-100%)
[5]
  LOLPE PRE percentage damage (five point scale): 5 (5=80-100%)
[6]
  AVEFA POST percentage damage (five point scale): 5 (5=80-100%)
[7]
  ECHCG POST percentage damage (five point scale): 5 (5=80-100%)
[8]
  ALOMY POST percentage damage (five point scale): 5 (5=80-100%)
[9]
  LOLPE POST percentage damage (five point scale): 5 (5=80-100%)
[10]
  SETFA POST percentage damage (five point scale): 5 (5=80-100%)

## CC#Cc1cc(C)c(C2C(=O)CC3(CCN(C(=O)NC(C)(C)C)CC3)CC2=O)c(OC)c1 [Compound A76]
[1]
  SETFA PRE percentage damage (five point scale): 5 (5=80-100%)
[2]
  AVEFA PRE percentage damage (five point scale): 5 (5=80-100%)
[3]
  ECHCG PRE percentage damage (five point scale): 5 (5=80-100%)
[4]
  ALOMY PRE percentage damage (five point scale): 5 (5=80-100%)
[5]
  LOLPE PRE percentage damage (five point scale): 5 (5=80-100%)
[6]
  AVEFA POST percentage damage (five point scale): 5 (5=80-100%)
[7]
  ECHCG POST percentage damage (five point scale): 5 (5=80-100%)
[8]
  ALOMY POST percentage damage (five point scale): 5 (5=80-100%)
[9]
  LOLPE POST percentage damage (five point scale): 5 (5=80-100%)
[10]
  SETFA POST percentage damage (five point scale): 5 (5=80-100%)

## CC#Cc1cc(C)c(C2C(=O)CC3(CCN(C(=O)COC(F)F)CC3)CC2=O)c(C)c1 [Compound A197, 3-[2-(difluoromethoxy)acetyl]-9-(2,6-dimethyl-4-prop-1-ynyl-phenyl)-3-azaspiro[5.5]undecane-8,10-dione]
[1]
  SETFA PRE percentage damage (five point scale): 5 (5=80-100%)
[2]
  AVEFA PRE percentage damage (five point scale): 5 (5=80-100%)
[3]
  ECHCG PRE percentage damage (five point scale): 5 (5=80-100%)
[4]
  ALOMY PRE percentage damage (five point scale): 5 (5=80-100%)
[5]
  LOLPE PRE percentage damage (five point scale): 5 (5=80-100%)
[6]
  AVEFA POST percentage damage (five point scale): 5 (5=80-100%)
[7]
  ECHCG POST percentage damage (five point scale): 5 (5=80-100%)
[8]
  ALOMY POST percentage damage (five point scale): 5 (5=80-100%)
[9]
  LOLPE POST percentage damage (five point scale): 5 (5=80-100%)
[10]
  SETFA POST percentage damage (five point scale): 5 (5=80-100%)
